According to PubChem BioAssay (NCI):
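Where inhibition never reached the appropriate level, the endpoint shown equals the highest concentration tested. Otherwise, values were interpolated linearly from a five-concentration, 48-hour dose response in 96-well plates. Definition used: TGI = concentration required for complete inhibition of growth.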

Experiments:
Test in all cases: NCI anticancer screen, dose series, 48 h
[1] = tested on: SF-295 CNS
[2] = tested on: MDA-MB-231 breast
[3] = tested on: CCRF-CEM leukemia
[4] = tested on: HL-60(TB) leukemia
[5] = tested on: UACC-62 melanoma
[6] = tested on: COLO 205 colon
[7] = tested on: HOP-62 NSCLC
[8] = tested on: HS 578T breast
[9] = tested on: SNB-75 CNS
[10] = tested on: MDA-N
[11] = tested on: EKVX NSCLC
[12] = tested on: MALME-3M melanoma
[13] = tested on: KM12 colon
[14] = tested on: MOLT-4 leukemia
[15] = tested on: PC-3 prostate
[16] = tested on: SR leukemia
[17] = tested on: 786-0 renal
[18] = tested on: DU-145 prostate
[19] = tested on: UACC-257 melanoma
[20] = tested on: LOX IMVI melanoma
[21] = tested on: NCI-H226 lung
[22] = tested on: NCI-H23 lung
[23] = tested on: SK-OV-3 ovarian
[24] = tested on: MDA-MB-435
[25] = tested on: RPMI-8226 leukemia
[26] = tested on: RXF 393 renal
[27] = tested on: HCT-15 colon
[28] = tested on: OVCAR-8 ovarian
[29] = tested on: M14 melanoma
[30] = tested on: MCF7 breast
[31] = tested on: HT29 colon
[32] = tested on: SK-MEL-2 melanoma
[33] = tested on: SNB-19 CNS
[34] = tested on: SF-539 CNS
[35] = tested on: TK-10 renal
[36] = tested on: UO-31 renal
[37] = tested on: IGROV1 ovarian
[38] = tested on: OVCAR-5 ovarian
[39] = tested on: OVCAR-4 ovarian
[40] = tested on: ACHN renal
[41] = tested on: SW-620 colon
[42] = tested on: SF-268 CNS
[43] = tested on: T-47D breast
[44] = tested on: A549 NSCLC
[45] = tested on: K-562 leukemia
[46] = tested on: HCC-2998 colon
[47] = tested on: OVCAR-3 ovarian
[48] = tested on: NCI-H460 lung
[49] = tested on: HOP-92 NSCLC
[50] = tested on: SK-MEL-5 melanoma
[51] = tested on: CAKI-1 renal
[52] = tested on: SK-MEL-28 melanoma
[53] = tested on: NCI-H522 lung
[54] = tested on: U251 CNS
[55] = tested on: A498 renal
[56] = tested on: NCI/ADR-RES ovarian
[57] = tested on: HCT-116 colon
[58] = tested on: SN12C renal
[59] = tested on: BT-549 breast

Measured: TGI

COC/C=C\[C@]1(O)CCCC[C@@H]1CC(OC)OC
91.2 µM: [14]
81.8 µM: [4]
not listed: [57] | [58] | [59]
> 100 µM: all other assays above

COc1cc(OC)cc(-c2nc3cc(F)ccc3s2)c1
62.9 µM: [55]
38.8 µM: [57]
36.6 µM: [26]
28.4 µM: [22]
37.8 µM: [21]
33.2 µM: [35]
40.3 µM: [2]
31.3 µM: [34]
45.5 µM: [53]
86.3 µM: [47]
97.8 µM: [28]
62.5 µM: [32]
0.0449 µM: [46]
43.5 µM: [11]
41.7 µM: [5]
33.9 µM: [54]
49.2 µM: [33]
32 µM: [42]
31.4 µM: [23]
24.7 µM: [59]
43.6 µM: [37]
29.8 µM: [40]
23.5 µM: [1] | [17]
not listed: [4] | [7] | [8] | [9] | [14] | [16] | [45] | [49] | [52]
> 100 µM: all other assays above
